Source: paper PMC4995692, “An assay to measure poly(ADP ribose) glycohydrolase (PARG) activity in cells” (F1000Research, 2016)
Entries after “also recorded” stand apart in the source; their conditions may differ.

What was measured:
[1] = molecular target: PARG (Homo sapiens, UniProt Q86W56); experiment: PAR chain assay in SW620 cells with temozolomide; type: cell-based
[2] = test system: PARG KD Hela cells (PARG Silencix); experiment: Growth inhibition by MMS in PARG KD Hela cells; type: cell-based; conditions: Homo sapiens, 120 h, 5 days
[3] = test system: PAR chains in PARG KD cells; experiment: PAR chain detection after MMS, preliminary western blot; type: cell-based, human; conditions: 250 µg/mL MMS
[4] = test system: Murine embryonic fibroblasts (MEFs); experiment: SRB assay, MMS sensitivity of MEFs; type: cell-based; conditions: Mus musculus, Fibroblast, 72 h
Procedure: (§1) Cells in 96-well plates were fixed with the addition of 100 µL ice cold 10% trichloroacetic acid to the media. After 1 h at 4°C, the cells were washed twice with PBS and left to dry. Once dry, 100 µL 0.2% sulforhodamine B (SRB) was add to each well and incubated for 15 min at room temperature. The cells were washed three times with 200 µL 1% acetic acid and then dried. To solubilise the remaining SRB, 200 µL 10 mM Tris pH10.5 was added to each well and the plate incubated with agitation for 10 min. Absorbance at 520 nm was measured on a plate reader (Biotek, Swindon, UK).

[5] = test system: SW620 cells; experiment: SW620 proliferation after MMS (Hoechst stain); type: cell-based, human; conditions: MMS 72 h
[6] = test system: H1048 cells; experiment: SRB assay, MMS sensitivity of H1048; type: cell-based; conditions: Homo sapiens, NCI-H1048, 72 h
Procedure: as §1

[7] = test system: control Hela cells; experiment: Growth inhibition by MMS in control Hela cells; type: cell-based; conditions: Homo sapiens, 120 h, 5 days
[8] = test system: nuclear PAR chains in Hela cells; type: cell-based, human; conditions: 250 µg/mL MMS
Procedure: Exponentially growing HeLa cells were trypsinized and resuspended in complete media before being filtered through a […] cell strainer (#352340, BD Falcon, Oxford, UK). Cells were then counted using a Muse cell counter (Merck Millipore, Hertfordshire, UK) and seeded in 30 µL of media at 4×10 ^4 cells/mL in Greiner 384-well plates (#781091, Greiner Bio-One, Stonehouse, UK) and placed in a cell culture incubator. After 16–24 h the plates were centrifuged briefly at 164× g and the cells dosed with compound(s) or vehicle (DMSO) control using an Echo 550 (Labcyte, Dublin, Ireland). […] After 1 h the plate was re-spun and cells co-dosed with different concentrations of MMS (50–250 µg/mL final concentration) or DMSO using the Echo 550 and incubated for a given time (30 min–2 h) at 37°C in a cell culture incubator. […] Following three washes with PBS, the plates were sealed and images captured using a 10× objective on a CellInsight (ThermoFisher) and analysed using Cellomics Scan compartmental analysis software (ThermoFisher). A threshold determined by assessing the signal in DMSO treated cells was applied to the pixel intensity and a Box Detection application was used to detect objects smaller than five pixels in radius within the nucleus. […]

Chain of PARG (Q86W56 whole entry): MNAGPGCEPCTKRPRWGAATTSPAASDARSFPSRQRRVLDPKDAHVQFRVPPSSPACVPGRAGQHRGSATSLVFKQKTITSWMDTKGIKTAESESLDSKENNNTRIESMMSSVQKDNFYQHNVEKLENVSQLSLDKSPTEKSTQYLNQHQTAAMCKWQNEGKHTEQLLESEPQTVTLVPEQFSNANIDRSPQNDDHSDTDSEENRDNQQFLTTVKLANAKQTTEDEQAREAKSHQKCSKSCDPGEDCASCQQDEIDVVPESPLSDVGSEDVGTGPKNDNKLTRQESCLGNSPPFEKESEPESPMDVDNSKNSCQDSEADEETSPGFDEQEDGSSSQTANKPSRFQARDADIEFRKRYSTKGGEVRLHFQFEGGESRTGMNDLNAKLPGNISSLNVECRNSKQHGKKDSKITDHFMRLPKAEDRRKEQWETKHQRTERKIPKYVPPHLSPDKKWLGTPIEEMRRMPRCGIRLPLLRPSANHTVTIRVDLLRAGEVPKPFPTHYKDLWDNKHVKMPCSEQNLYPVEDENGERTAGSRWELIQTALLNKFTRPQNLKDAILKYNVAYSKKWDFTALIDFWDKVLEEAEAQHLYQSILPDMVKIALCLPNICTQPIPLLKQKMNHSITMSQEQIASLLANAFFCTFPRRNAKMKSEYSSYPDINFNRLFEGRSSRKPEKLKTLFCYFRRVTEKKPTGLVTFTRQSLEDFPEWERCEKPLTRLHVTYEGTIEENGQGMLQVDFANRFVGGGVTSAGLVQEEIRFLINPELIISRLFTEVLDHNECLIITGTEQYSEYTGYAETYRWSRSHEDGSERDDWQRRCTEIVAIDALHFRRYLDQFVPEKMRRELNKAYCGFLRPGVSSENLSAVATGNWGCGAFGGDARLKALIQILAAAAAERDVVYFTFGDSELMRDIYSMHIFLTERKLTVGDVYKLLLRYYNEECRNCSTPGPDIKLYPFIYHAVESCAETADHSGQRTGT

O=C(c1cc(Cc2n[nH]c(=O)c3ccccc23)ccc1F)N1CCN(C(=O)C2CC2)CC1 [olaparib]
PAR signal ([1]; increasing concentrations of compound, 150 µg/mL temozolomide for 1 h): did not lead to any increase; also recorded: no effect
PAR signal ([1]; pre-treated at 300 nM, 1 h temozolomide 1.5-200 µg/mL): no effect

Cn1nnc2c(C(N)=O)ncn2c1=O [TMZ, Temozolomide]
PAR signal ([1]; one hour after TMZ alone): no PAR signal detectable

COS(C)(=O)=O [MMS, Methylmethanesulfonate]
IC50 [2]: 6.2 µg/mL
time of peak of PAR chains after MMS addition [3]: approximately 20 min
IC50 [4]: 14.5 µM
proliferation [5]: dose-dependent decrease
IC50 [6]: 9 µM
IC50 [7]: 16.5 µg/mL
time of maximum nuclear PAR signal [8]: 25 min
